In brackets after ≈: the same amount, converted by molar mass. Where a name gives a salt, the structure may show the parent alone. Read-outs that look alike come from different tables or passages of the source.
What was measured:
E. coli GC 2847 (TEM-1) = assay: MIC microbroth dilution; β-lactamase class A; format: cell-based
Description: (§1) The in vitro activities of the antibiotics were determined by the microbroth dilution method as recommended by the National Committee for Clinical Laboratory Standards (NCCLS). (NCCLS. 2000. Methods for Dilution Antimicrobial Susceptibility Tests for Bacteria That Grow Aerobically; Approved Standards: M7-A5, vol. 19. National Committee for Clinical Laboratory Standards, Villanova, Pa.). Mueller-Hinton II broth (MHBII)(BBL Cockeysville, Md.), was used for the testing procedure. […]. The plates were incubated for 18-22 hours at 35° C. in ambient air.

[1] = test system: K. pn GC 1507 (TEM-9 + SHV-1); assay: MIC microbroth dilution; β-lactamase class A, A (ESBL); format: cell-based, K. pneumoniae
Description: as §1

[2] = test system: K. pn GC 6488 (TEM-1 + SHV-5 + SHV-7); assay: as above; format: cell-based, K. pneumoniae
Description: as §1

[3] = test system: K. pn GC 6651 (TEM-1 + SHV-1 + SHV-5); assay: as above; format: cell-based, K. pneumoniae
Description: as §1

[4] = test system: E. coli GC 1499 (TEM-4 + TEM-1); assay: as above; format: cell-based
Description: as §1

[5] = test system: E. coli GC 1695 (TEM-1 + TEM-10); assay: as above; format: cell-based
Description: as §1

[6] = test system: E. coli GC 2015 (TEM-10 + SHV-1); assay: as above; format: cell-based
Description: as §1

[7] = test system: E. coli GC 2146 (TEM-1; SHV-7); assay: as above; format: cell-based
Description: as §1

[8] = test system: E. coli GC 5901 (TEM-1 and SHV-8); assay: as above; format: cell-based
Description: as §1

[9] = test system: E. coli GC 6260 (TEM-1 + SHV-5); assay: as above; format: cell-based
Description: as §1

E. coli GC 2906 (Imi-1) = assay: MIC microbroth dilution; β-lactamase class A (Cb'ase); format: cell-based
Description: as §1

[10] = test system: K. pneumoniae GC 7635 SHV-1, KPC2; assay: MIC microbroth dilution; β-lactamase class A, A (Cb'ase); format: cell-based
Description: as §1

[11] = test system: K. pneumoniae GC 7636 TEM-1 KPC-2 SHV-12; assay: MIC microbroth dilution; β-lactamase class A, A (Cb'ase), A (ESBL); format: cell-based
Description: as §1

[12] = test system: C. freundii GC 4187 Stably derepressed AmpC; assay: MIC microbroth dilution; β-lactamase class C; format: cell-based
Description: as §1

[13] = test system: C. freundii PT 1499 Stably derepressed AmpC; assay: MIC microbroth dilution; β-lactamase class C; format: cell-based
Description: as §1

[14] = test system: P. aeruginosa GC 4161 Stably derepressed AmpC; assay: MIC microbroth dilution; β-lactamase class C; format: cell-based
Description: as §1

[15] = test system: S. marcescens GC 4132 Stably derepressed AmpC; assay: MIC microbroth dilution; β-lactamase class C; format: cell-based
Description: as §1

[16] = test system: C. freundii GC 4171 TEM-1 + InducibleAmpC; assay: MIC microbroth dilution; β-lactamase class A, C; format: cell-based
Description: as §1

[17] = test system: E. coli GC 2149 (ACT-1; TEM-1 + pl 5.6); assay: MIC microbroth dilution; β-lactamase class A, A (ESBL), C; format: cell-based
Description: as §1

[18] = test system: E. coli GC 6197 (TEM-1 + SHV-7 + CMY-2); assay: as above; format: cell-based
Description: as §1

[19] = test system: K. pneumoniae GC 2825 Act 1 + 3 additional; assay: as above; format: cell-based
Description: as §1

[20] = test system: K. pneumoniae GC 2826 Act 1 + 3 additional; assay: as above; format: cell-based
Description: as §1

[21] = test system: S. marcescens GC 1781 (Sme-1 + AmpC); assay: MIC microbroth dilution; β-lactamase class A (Cb'ase), C; format: cell-based
Description: as §1

[22] = test system: A. baumannii PT 8321 PTZ-R; assay: MIC microbroth dilution; β-lactamase class not determined; format: cell-based
Description: as §1

[23] = test system: A. baumannii PT 9158 PTZ-R; assay: as above; format: cell-based
Description: as §1

[24] = biological target: class A β-lactamase TEM-1 (Escherichia coli, UniProt P62593); assay: β-Lactamase inhibition IC50 (nitrocefin, spectrophotometric); format: biochemical, E. coli; details: enzyme 4.3 nM, 10 min preincubation at 25° C.
Sequence of class A β-lactamase TEM-1 (P62593 24-286 limits assumed): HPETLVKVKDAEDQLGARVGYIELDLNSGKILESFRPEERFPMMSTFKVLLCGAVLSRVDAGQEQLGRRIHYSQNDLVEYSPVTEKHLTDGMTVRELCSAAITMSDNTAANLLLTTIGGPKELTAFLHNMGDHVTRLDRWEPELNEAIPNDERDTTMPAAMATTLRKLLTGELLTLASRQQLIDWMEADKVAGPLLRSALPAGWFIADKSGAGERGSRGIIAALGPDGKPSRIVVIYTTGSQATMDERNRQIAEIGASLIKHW
Description: β-Lactamase inhibitory activity of the penem inhibitors was determined spectrophotometrically as described by Bush et al., [Bush, K., Macalintal, C., Rasmussen, B. A., Lee, V. and Yang, Y. Antimicrobial Agents and Chemotherapy 1993, 37, 851]. Homogeneously purified class A β-lactamases TEM-1 from E. coli and Imi-1 from Enterobacter cloacae, class B enzyme CcrA from Bacteroides fragilis and class C enzyme AmpC from Enterobacter cloacae were employed in the assay. The enzyme concentrations for TEM-1, Imi-1, CcrA and AmpC were 4.3, 7.1, 1.2 and 2.1 nM, respectively. A wide range of inhibitor concentrations were prepared in 50 mM PO4, pH 7.0 to include the possible IC50 values. The substrate used to initiate the enzyme reaction was nitrocefin at 50 μg/ml in the same buffer as the inhibitor. Initially the enzyme and inhibitor (20 μl each) were preincubated for 10 minutes at 25° C. prior to the addition of 160 μl volume of nitrocefin. Initial rates of hydrolysis were monitored for 5 minutes at 495 nm using a Molecular Devices Spectra Max 250 with kinetic protocol of SoftMax Program. Readings from the Spectra Max 250 were exported and transferred to Microsoft Excel. The percent of inhibition of each inhibitor concentration was calculated based on the control enzyme activity. The inhibitor concentration that caused a 50% reduction in the enzymatic activity (IC50) was determined graphically.

[25] = Escherichia coli, Cefepime alone, control of Compound 1 test, read-out: MIC
[26] = Escherichia coli, Cefepime alone, control of Compound 2 test, read-out: MIC
[27] = Cefepime alone, control of Compound 2 test
[28] = Klebsiella pneumoniae, Cefepime alone, control of Compound 1 test, read-out: MIC
[29] = Klebsiella pneumoniae, Cefepime alone, control of Compound 2 test, read-out: MIC
[30] = Citrobacter freundii, Cefepime alone, control of Compound 1 test
[31] = Escherichia coli, Cefepime + 4 ug/ml Compound 2, read-out: MIC
[32] = Klebsiella pneumoniae, Cefepime + 4 ug/ml Compound 2, read-out: MIC

CO/N=C(\C(=O)N[C@@H]1C(=O)N2C(C(=O)[O-])=C(C[N+]3(C)CCCC3)CS[C@H]12)c1csc(N)n1 [Cefepime, reference compound]
MIC (E. coli GC 2847 (TEM-1); [25]): 0.12 µg/mL (≈ 0.25 µM) | MIC (E. coli GC 2847 (TEM-1); [26]): 0.06 µg/mL (≈ 0.125 µM) | MIC [1, 27]: 8 µg/mL (≈ 16.6 µM) | MIC [1, 28]: 8 µg/mL (≈ 16.6 µM) | MIC [2, 28]: 8 µg/mL (≈ 16.6 µM) | MIC [2, 29]: 4 µg/mL (≈ 8.32 µM) | MIC [3, 28]: 8 µg/mL (≈ 16.6 µM) | MIC [3, 29]: 4 µg/mL (≈ 8.32 µM) | MIC [4, 27]: >16 µg/mL | MIC [4, 25]: > 16 µg/mL | MIC [5, 27]: >16 µg/mL | MIC [5, 25]: > 16 µg/mL | MIC [6, 27]: >16 µg/mL | MIC [6, 25]: > 16 µg/mL | MIC [7, 27]: >16 µg/mL | MIC [7, 25]: > 16 µg/mL | MIC [8, 27]: >16 µg/mL | MIC [8, 25]: > 16 µg/mL | MIC [9, 27]: >16 µg/mL | MIC [9, 25]: > 16 µg/mL | MIC (E. coli GC 2906 (Imi-1); Escherichia coli, Cefepime alone, control of Compound 1 test): 0.5 µg/mL (≈ 1.04 µM) | MIC [10, 27]: >16 µg/mL | MIC [10, 28]: > 16 µg/mL | MIC ([11]; K. pneumoniae GC 7636, Cefepime alone, control of Compound 2 test): >16 µg/mL | MIC ([11]; Klebsiella pneumoniae): > 16 µg/mL | MIC [12, 30]: 2 µg/mL (≈ 4.16 µM) | MIC [13, 30]: 4 µg/mL (≈ 8.32 µM) | MIC ([13]; Citrobacter freundii, Cefepime alone, control of Compound 2 test): 2 µg/mL (≈ 4.16 µM) | MIC ([14]; P. aeruginosa GC 4161, Cefepime alone, control of Compound 2 test): >16 µg/mL | MIC ([14]; Pseudomonas aeruginosa): > 16 µg/mL | MIC [15, 27]: 0.50 µg/mL (≈ 1.04 µM) | MIC ([16]; C. freundii GC 4171, Cefepime alone, control of Compound 2 test): 4 µg/mL (≈ 8.32 µM) | MIC ([16]; Citrobacter freundii): 4 µg/mL (≈ 8.32 µM) | MIC [17, 25]: 8 µg/mL (≈ 16.6 µM) | MIC [17, 26]: 16 µg/mL (≈ 33.3 µM) | MIC [18, 27]: >16 µg/mL | MIC [18, 25]: > 16 µg/mL | MIC [19, 27]: 2 µg/mL (≈ 4.16 µM) | MIC [19, 28]: 2 µg/mL (≈ 4.16 µM) | MIC [20, 27]: 8 µg/mL (≈ 16.6 µM) | MIC [20, 28]: 8 µg/mL (≈ 16.6 µM) | MIC ([21]; Serratia marcescens, Cefepime alone, control of Compound 1 test, read-out: MIC): 0.25 µg/mL (≈ 0.52 µM) | MIC ([21]; Serratia marcescens, Cefepime alone, control of Compound 2 test, read-out: MIC): 0.06 µg/mL (≈ 0.125 µM) | MIC ([22]; Acinetobacter baumannii, PT8321PTZR, Cefepime alone, control of Compound 1 test, read-out: MIC): > 16 µg/mL | MIC [22, 27]: >16 µg/mL | MIC ([23]; Acinetobacter baumannii, PT9158PTZR, Cefepime alone, control of Compound 1 test, read-out: MIC): > 16 µg/mL | MIC [23, 27]: >16 µg/mL

O=C(O)C1=CS[C@@H]2/C(=C\c3cn4c(n3)COCC4)C(=O)N12 [Compound 2, (5R), (6Z)-6-(5,6-Dihydro-8H-imidazo[2.1-c][1,4]oxazin-2-ylmethylene)-7-oxo-4-thia-1-azabicyclo[3.2.0]hept-2-ene-2-carboxylic Acid, Sodium Salt]
IC50 [24]: 0.6 nM | MIC (E. coli GC 2847 (TEM-1); [31]): 0.06 µg/mL | MIC [1, 32]: 0.06 µg/mL | MIC [2, 32]: 0.5 µg/mL | MIC [3, 32]: 0.12 µg/mL | MIC [4, 31]: 1 µg/mL | MIC [5, 31]: 0.03 µg/mL | MIC [6, 31]: 0.12 µg/mL | MIC [7, 31]: 0.12 µg/mL | MIC [8, 31]: 2 µg/mL | MIC [9, 31]: 0.03 µg/mL | MIC [10, 32]: 4 µg/mL | MIC ([16]; Citrobacter freundii): 0.06 µg/mL | MIC [17, 31]: 0.5 µg/mL | MIC [18, 31]: 2 µg/mL | MIC [19, 32]: 0.12 µg/mL | MIC [20, 32]: 1 µg/mL | MIC ([21]; Serratia marcescens, Cefepime + 4 ug/ml Compound 2, read-out: MIC): 0.06 µg/mL | MIC ([22]; Acinetobacter baumannii, PT8321PTZR, Cefepime + 4 ug/ml Compound 2, read-out: MIC): > 16 µg/mL | MIC ([23]; Acinetobacter baumannii, PT9158PTZR, Cefepime + 4 ug/ml Compound 2, read-out: MIC): 16 µg/mL

O=C([O-])C1=CS[C@@H]2/C(=C\c3cn4c(n3)CCC4)C(=O)N12.[Na+] [Compound 1, (5R), (6Z)-6-(6,7-Dihydro-5H-pyrrolo[1,2-a]imidazol-2-ylmethylene)-7-oxo-4-thia-1-aza-bicyclo[3.2.0]hept-2-ene-2-carboxylic Acid, Sodium Salt]
IC50 [24]: 0.4 nM | MIC (E. coli GC 2847 (TEM-1); Cefepime + 4 ug/ml Compound 1): 0.06 µg/mL | MIC ([1]; Cefepime + 4 ug/ml Compound 1): 0.12 µg/mL | MIC ([2]; Cefepime + 4 ug/ml Compound 1): 1 µg/mL | MIC ([3]; Cefepime + 4 ug/ml Compound 1): 0.12 µg/mL | MIC ([4]; Cefepime + 4 ug/ml Compound 1): 0.50 µg/mL | MIC ([5]; Cefepime + 4 ug/ml Compound 1): 0.03 µg/mL | MIC ([6]; Cefepime + 4 ug/ml Compound 1): 0.25 µg/mL | MIC ([7]; Cefepime + 4 ug/ml Compound 1): 0.12 µg/mL | MIC ([8]; Cefepime + 4 ug/ml Compound 1): 4 µg/mL | MIC ([9]; Cefepime + 4 ug/ml Compound 1): 0.03 µg/mL | MIC (E. coli GC 2906 (Imi-1); Cefepime + 4 ug/ml Compound 1): 0.06 µg/mL | MIC ([10]; Cefepime + 4 ug/ml Compound 1): 8 µg/mL | MIC ([11]; K. pneumoniae GC 7636, Cefepime + 4 ug/ml Compound 1): 16 µg/mL | MIC ([12]; Cefepime + 4 ug/ml Compound 1): 0.12 µg/mL | MIC ([13]; Cefepime + 4 ug/ml Compound 1): 0.03 µg/mL | MIC ([14]; P. aeruginosa GC 4161, Cefepime + 4 ug/ml Compound 1): 16 µg/mL | MIC ([15]; Cefepime + 4 ug/ml Compound 1): 0.12 µg/mL | MIC ([16]; C. freundii GC 4171, Cefepime + 4 ug/ml Compound 1): 0.06 µg/mL | MIC ([17]; Cefepime + 4 ug/ml Compound 1): 0.50 µg/mL | MIC ([18]; Cefepime + 4 ug/ml Compound 1): 4 µg/mL | MIC ([19]; Cefepime + 4 ug/ml Compound 1): 0.12 µg/mL | MIC ([20]; Cefepime + 4 ug/ml Compound 1): 1 µg/mL | MIC ([21]; Cefepime + 4 ug/ml Compound 1): 0.12 µg/mL | MIC ([22]; Cefepime + 4 ug/ml Compound 1): >16 µg/mL | MIC ([23]; Cefepime + 4 ug/ml Compound 1): 16 µg/mL

From patent publication US20070129344A1, “Bicyclic 6-alkylidene-penem beta-lactamase inhibitors and beta-lactam antibiotic combination: a broad spectrum antibiotic” (priority 2005, published 2007)
